Results taken from ChEMBL document CHEMBL5042510, “Structure-Guided Discovery of Aminoquinazolines as Brain-Penetrant and Selective LRRK2 Inhibitors” (J Med Chem, 2022).
pIC50: −log10 of the molar value. ≈ marks a conversion by molar mass, not a printed value.

Tests used:
[1] = Intrinsic clearance in Rhesus monkey at 0.1 mg/kg, iv by LC-MS/MS analysis; format: ADME, organism-based, Macaca mulatta; settings: in vivo
[2] = Unbound brain-to-plasma concentration ratio in rat at 2.5 uM incubated for 4 hrs by equilibrium dialysis method; format: ADME, cell-free; settings: brain and plasma (unbound), read-out: K(p,uu,brain)
rat Mdr1a (P-gp) [3] = assay: Efflux ratio of apparent permeability across basolateral to apical side over apical to basolateral side in rat Mdr1a-transfected pig LLC-PK1 cells at 0.1 to 1 uM measured after 3 hrs by LC/MS/MS analysis; format: ADME, cell-based, Sus scrofa; settings: dose 0.1-1 µM
rat Mdr1a (P-gp) [4] = assay: Apparent permeability from apical to basolateral side in rat Mdr1a-transfected pig LLC-PK1 cells at 0.1 to 1 uM measured after 3 hrs by LC/MS/MS analysis; format: ADME, cell-based, Sus scrofa; settings: dose 0.1-1 µM
[5] = Intrinsic clearance in human hepatocytes at 0.3 uM incubated for 90 mins by LC/MS/MS analysis; format: ADME, cell-based, Hepatocyte; settings: read-out: CLH
[6] = Intrinsic clearance in rat hepatocytes at 0.3 uM incubated for 90 mins by LC/MS/MS analysis; format: ADME, cell-based, Hepatocyte; settings: read-out: CLH
[7] = Total plasma clearance in Wistar Han rat at 2 mg/kg, iv by LC-MS/MS analysis; format: ADME, organism-based
[8] = Intrinsic clearance in Wistar Han rat at 2 mg/kg, iv by LC-MS/MS analysis; format: ADME, organism-based; settings: in vivo
[9] = MRT in Wistar Han rat at 2 mg/kg, iv by LC-MS/MS analysis; format: ADME, organism-based; settings: in vivo
[10] = Intrinsic clearance in dog hepatocytes at 0.3 uM incubated for 90 mins by LC/MS/MS analysis; format: ADME, cell-based, Canis lupus familiaris, Hepatocyte; settings: read-out: CLH
[11] = Total plasma clearance in Beagle dog at 0.25 mg/kg, iv by LC-MS/MS analysis; format: ADME, organism-based, Canis lupus familiaris
[12] = Intrinsic clearance in Beagle dog at 0.25 mg/kg, iv by LC-MS/MS analysis; format: ADME, organism-based, Canis lupus familiaris; settings: in vivo
[13] = MRT in Beagle dog at 0.25 mg/kg, iv by LC-MS/MS analysis; format: ADME, organism-based, Canis lupus familiaris; settings: in vivo
[14] = Oral bioavailability in Wistar Han rat at 10 mg/kg by LC-MS/MS analysis; format: ADME, organism-based; settings: in vivo
[15] = Oral bioavailability in Beagle dog at 0.5 mg/kg by LC-MS/MS analysis; format: ADME, organism-based, Canis lupus familiaris; settings: in vivo
mouse Bcrp [16] = assay: Efflux ratio of apparent permeability across basolateral to apical over apical to basolateral side in mouse Bcrp-transfected dog MDCK-II cells at 0.1 to 1 uM measured after 3 hrs by LC/MS/MS analysis; format: ADME, cell-based, Canis lupus familiaris; settings: dose 0.1-1 µM
[17] = biological target: Voltage-gated inwardly rectifying potassium channel KCNH2 (Homo sapiens, UniProt Q12809); assay: Inhibition of human ERG by voltage clamp assay; format: toxicity
Salmonella typhimurium [18] = assay: Mutagenicity in Salmonella typhimurium TA1535 at 30 to 5000 ug incubated for 48 hrs in presence of liver S9 fraction by AMES test; format: toxicity, organism-based, Salmonella enterica subsp. enterica serovar Typhimurium; settings: s9, 48 h, dose 30-5000 µg
Salmonella typhimurium [19] = assay: Mutagenicity in Salmonella typhimurium TA98 at 30 to 5000 ug incubated for 48 hrs in presence of liver S9 fraction by AMES test; format: toxicity, organism-based, Salmonella enterica subsp. enterica serovar Typhimurium; settings: s9, 48 h, dose 30-5000 µg
Salmonella typhimurium [20] = assay: Mutagenicity in Salmonella typhimurium TA100 at 30 to 5000 ug incubated for 48 hrs in presence of liver S9 fraction by AMES test; format: toxicity, organism-based, Salmonella enterica subsp. enterica serovar Typhimurium; settings: s9, 48 h, dose 30-5000 µg
[21] = biological target: Leucine-rich repeat serine/threonine-protein kinase 2 (Homo sapiens) (UniProt Q5S007); assay: Ex vivo inhibition of LRRK2 in human PBMC assessed as unbound concentration required for reduction in LRRK2 phosphorylation at Ser935 residue incubated for 90 mins by MSD assay; format: cell-based
[22] = Thermodynamic solubility of the compound in FaSSIF measured after 24 hrs by reverse phase UPLC analysis; format: physicochemical; settings: read-out: Therm_solubility
mouse Bcrp [23] = assay: Apparent permeability in mouse Bcrp-transfected dog MDCK-II cells at 0.1 to 1 uM measured after 3 hrs by LC/MS/MS analysis; format: ADME, cell-based, Canis lupus familiaris; settings: dose 0.1-1 µM
[24] = Total plasma clearance in Rhesus monkey at 0.1 mg/kg, iv by LC-MS/MS analysis; format: ADME, organism-based, Macaca mulatta
[25] = MRT in Rhesus monkey at 0.1 mg/kg, iv by LC-MS/MS analysis; format: ADME, organism-based, Macaca mulatta; settings: in vivo
[26] = biological target: MAP/microtubule affinity-regulating kinase 3 (Homo sapiens, UniProt P27448); assay: Inhibition of MARK3 (unknown origin)
[27] = Toxicity in rat assessed as drug tolerability at 10 to 75 mg/kg, po bid administered for 4 days; format: organism-based; settings: in vivo, 96 h, dose 10-75 mg/kg, time 4 day
[28] = AUC in rat at 10 to 75 mg/kg, po bid administered for 4 days; format: ADME, organism-based; set-up: time 4 day; settings: in vivo, 96 h, dose 10-75 mg/kg
CYP1A1 = assay: Toxicity in rat assessed as fold induction of CYP1A1 transcriptional activity in liver at 10 to 75 mg/kg, po bid administered for 4 days relative to control; format: organism-based; settings: dose 10-75 mg/kg, time 4 day, read-out: FC
GSTA5 = assay: Toxicity in rat assessed as fold increase in GSTA5 transcriptional activity in liver at 75 mg/kg, po bid administered for 4 days relative to control; format: organism-based; settings: time 4 day, read-out: FC
UGT1A6 = assay: Toxicity in rat assessed as fold increase in UGT1A6 transcriptional activity in liver at 75 mg/kg, po bid administered for 4 days relative to control; format: organism-based; settings: time 4 day, read-out: FC
[29] = Toxicity in rat assessed as elevation of PXR gene expression at 10 to 75 mg/kg, po bid administered for 4 days; format: organism-based; settings: in vivo, 96 h, dose 10-75 mg/kg, time 4 day
[30] = Toxicity in rat assessed as elevation of AhR gene expression at 10 to 75 mg/kg, po bid administered for 4 days; format: organism-based; settings: in vivo, 96 h, dose 10-75 mg/kg, time 4 day
[31] = Toxicity in rat assessed as elevation of inflammatory response related gene expression at 10 to 75 mg/kg, po bid administered for 4 days; format: organism-based; settings: in vivo, 96 h, dose 10-75 mg/kg, time 4 day
[32] = biological target: T1, Natriuretic peptides A (Homo sapiens) (UniProt P01160); assay: Agonist activity at ANF (unknown origin) at 10 uM; settings: filed as agonist
T1 sequence (whole entry): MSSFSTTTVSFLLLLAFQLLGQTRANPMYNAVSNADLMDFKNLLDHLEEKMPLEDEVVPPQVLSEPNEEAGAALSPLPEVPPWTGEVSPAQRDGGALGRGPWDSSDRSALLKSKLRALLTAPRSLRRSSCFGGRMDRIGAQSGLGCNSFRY

human MDR1 (P-gp) = assay: Efflux ratio of apparent permeability across basolateral to apical side over apical to basolateral side in human MDR1-transfected dog MDCKII-MDR1 cells at 0.1 to 1 uM measured after 3 hrs by LC/MS/MS analysis; format: ADME, cell-based, Canis lupus familiaris; settings: MDCK-MDR1, dose 0.1-1 µM
[33] = Unbound brain-to-plasma concentration ratio in non-human primates by positron emission tomography; format: ADME; settings: brain and plasma (unbound), read-out: K(p,uu,brain)

Leucine-rich repeat serine/threonine-protein kinase 2 (Homo sapiens), sequence (Q5S007 whole entry): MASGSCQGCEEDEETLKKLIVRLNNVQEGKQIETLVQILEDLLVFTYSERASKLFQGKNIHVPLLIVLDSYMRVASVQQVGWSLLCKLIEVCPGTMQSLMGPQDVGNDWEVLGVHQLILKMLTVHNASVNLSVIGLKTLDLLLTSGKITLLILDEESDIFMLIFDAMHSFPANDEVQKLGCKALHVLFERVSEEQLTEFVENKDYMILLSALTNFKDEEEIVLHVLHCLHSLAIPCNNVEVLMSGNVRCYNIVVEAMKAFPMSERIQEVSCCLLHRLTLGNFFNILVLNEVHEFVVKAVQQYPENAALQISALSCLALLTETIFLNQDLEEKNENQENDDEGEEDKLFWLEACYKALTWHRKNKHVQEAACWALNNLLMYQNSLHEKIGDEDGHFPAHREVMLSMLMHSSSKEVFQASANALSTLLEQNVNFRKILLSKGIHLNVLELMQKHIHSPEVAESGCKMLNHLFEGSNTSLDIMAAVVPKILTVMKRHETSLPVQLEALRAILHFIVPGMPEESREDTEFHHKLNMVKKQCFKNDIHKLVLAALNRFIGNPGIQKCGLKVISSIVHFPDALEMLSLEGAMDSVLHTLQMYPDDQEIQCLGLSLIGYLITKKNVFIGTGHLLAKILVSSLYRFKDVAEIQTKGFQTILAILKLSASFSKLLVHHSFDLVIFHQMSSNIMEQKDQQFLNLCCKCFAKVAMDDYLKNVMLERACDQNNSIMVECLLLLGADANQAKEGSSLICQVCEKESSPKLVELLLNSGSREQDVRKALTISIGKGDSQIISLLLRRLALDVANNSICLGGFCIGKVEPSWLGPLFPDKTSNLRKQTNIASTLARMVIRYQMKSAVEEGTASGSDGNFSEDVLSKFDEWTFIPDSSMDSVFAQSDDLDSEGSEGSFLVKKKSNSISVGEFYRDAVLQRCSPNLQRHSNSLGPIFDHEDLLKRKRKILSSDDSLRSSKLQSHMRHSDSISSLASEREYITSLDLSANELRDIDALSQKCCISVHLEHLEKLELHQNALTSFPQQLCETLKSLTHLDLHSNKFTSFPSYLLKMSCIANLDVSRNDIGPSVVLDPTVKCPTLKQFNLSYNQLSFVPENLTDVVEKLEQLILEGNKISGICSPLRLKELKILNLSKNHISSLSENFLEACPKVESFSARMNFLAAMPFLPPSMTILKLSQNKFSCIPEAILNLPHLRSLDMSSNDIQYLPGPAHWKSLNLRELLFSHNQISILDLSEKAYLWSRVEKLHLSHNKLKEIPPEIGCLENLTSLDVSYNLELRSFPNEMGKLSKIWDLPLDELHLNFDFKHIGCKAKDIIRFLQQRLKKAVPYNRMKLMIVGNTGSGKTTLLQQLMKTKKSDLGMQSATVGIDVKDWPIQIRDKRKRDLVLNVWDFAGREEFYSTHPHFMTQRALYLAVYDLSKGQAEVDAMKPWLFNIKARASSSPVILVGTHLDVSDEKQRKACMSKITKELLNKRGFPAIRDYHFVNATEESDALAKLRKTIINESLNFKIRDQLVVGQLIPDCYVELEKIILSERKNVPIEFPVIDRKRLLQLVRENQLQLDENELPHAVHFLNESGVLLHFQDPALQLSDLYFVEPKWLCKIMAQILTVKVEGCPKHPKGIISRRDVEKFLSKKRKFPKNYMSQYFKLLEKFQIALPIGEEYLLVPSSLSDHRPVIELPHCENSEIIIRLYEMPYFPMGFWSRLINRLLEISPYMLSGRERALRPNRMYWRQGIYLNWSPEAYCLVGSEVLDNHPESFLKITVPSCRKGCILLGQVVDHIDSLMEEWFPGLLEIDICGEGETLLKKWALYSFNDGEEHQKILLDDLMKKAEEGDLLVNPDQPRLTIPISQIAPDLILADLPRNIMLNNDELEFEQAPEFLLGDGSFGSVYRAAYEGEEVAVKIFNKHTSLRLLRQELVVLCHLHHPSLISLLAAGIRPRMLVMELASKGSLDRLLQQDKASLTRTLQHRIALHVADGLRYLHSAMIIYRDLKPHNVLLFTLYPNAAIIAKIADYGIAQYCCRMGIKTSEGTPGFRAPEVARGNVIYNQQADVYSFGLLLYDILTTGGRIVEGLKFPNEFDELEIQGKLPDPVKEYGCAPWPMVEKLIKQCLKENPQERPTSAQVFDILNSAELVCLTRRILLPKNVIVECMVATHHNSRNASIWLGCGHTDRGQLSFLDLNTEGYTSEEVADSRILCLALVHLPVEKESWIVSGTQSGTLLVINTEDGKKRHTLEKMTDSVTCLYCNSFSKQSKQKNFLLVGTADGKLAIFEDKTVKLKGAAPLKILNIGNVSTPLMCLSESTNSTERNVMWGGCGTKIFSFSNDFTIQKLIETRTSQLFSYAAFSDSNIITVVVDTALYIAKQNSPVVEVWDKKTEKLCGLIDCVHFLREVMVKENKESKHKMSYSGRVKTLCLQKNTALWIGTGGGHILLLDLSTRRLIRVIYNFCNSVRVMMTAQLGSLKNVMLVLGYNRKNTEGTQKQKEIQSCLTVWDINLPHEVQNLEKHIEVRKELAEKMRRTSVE
MAP/microtubule affinity-regulating kinase 3, sequence (P27448 whole entry): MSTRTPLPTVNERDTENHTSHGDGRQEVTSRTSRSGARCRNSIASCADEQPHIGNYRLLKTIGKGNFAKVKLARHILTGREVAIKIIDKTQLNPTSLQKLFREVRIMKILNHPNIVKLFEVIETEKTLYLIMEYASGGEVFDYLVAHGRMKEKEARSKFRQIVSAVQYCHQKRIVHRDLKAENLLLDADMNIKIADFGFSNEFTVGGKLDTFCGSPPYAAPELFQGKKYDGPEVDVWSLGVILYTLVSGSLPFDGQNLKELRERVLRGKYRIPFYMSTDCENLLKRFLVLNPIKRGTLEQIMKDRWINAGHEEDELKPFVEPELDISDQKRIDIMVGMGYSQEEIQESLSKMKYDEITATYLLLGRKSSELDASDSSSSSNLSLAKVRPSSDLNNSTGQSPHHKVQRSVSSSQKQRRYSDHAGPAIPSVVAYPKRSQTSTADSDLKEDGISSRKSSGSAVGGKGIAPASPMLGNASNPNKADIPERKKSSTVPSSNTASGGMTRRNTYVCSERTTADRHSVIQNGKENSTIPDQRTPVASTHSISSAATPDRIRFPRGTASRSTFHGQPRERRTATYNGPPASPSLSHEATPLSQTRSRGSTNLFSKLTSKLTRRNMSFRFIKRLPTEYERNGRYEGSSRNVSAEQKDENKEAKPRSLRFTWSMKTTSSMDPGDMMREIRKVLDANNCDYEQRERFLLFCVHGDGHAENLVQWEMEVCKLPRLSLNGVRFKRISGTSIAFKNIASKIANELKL
Voltage-gated inwardly rectifying potassium channel KCNH2, sequence (Q12809 whole entry): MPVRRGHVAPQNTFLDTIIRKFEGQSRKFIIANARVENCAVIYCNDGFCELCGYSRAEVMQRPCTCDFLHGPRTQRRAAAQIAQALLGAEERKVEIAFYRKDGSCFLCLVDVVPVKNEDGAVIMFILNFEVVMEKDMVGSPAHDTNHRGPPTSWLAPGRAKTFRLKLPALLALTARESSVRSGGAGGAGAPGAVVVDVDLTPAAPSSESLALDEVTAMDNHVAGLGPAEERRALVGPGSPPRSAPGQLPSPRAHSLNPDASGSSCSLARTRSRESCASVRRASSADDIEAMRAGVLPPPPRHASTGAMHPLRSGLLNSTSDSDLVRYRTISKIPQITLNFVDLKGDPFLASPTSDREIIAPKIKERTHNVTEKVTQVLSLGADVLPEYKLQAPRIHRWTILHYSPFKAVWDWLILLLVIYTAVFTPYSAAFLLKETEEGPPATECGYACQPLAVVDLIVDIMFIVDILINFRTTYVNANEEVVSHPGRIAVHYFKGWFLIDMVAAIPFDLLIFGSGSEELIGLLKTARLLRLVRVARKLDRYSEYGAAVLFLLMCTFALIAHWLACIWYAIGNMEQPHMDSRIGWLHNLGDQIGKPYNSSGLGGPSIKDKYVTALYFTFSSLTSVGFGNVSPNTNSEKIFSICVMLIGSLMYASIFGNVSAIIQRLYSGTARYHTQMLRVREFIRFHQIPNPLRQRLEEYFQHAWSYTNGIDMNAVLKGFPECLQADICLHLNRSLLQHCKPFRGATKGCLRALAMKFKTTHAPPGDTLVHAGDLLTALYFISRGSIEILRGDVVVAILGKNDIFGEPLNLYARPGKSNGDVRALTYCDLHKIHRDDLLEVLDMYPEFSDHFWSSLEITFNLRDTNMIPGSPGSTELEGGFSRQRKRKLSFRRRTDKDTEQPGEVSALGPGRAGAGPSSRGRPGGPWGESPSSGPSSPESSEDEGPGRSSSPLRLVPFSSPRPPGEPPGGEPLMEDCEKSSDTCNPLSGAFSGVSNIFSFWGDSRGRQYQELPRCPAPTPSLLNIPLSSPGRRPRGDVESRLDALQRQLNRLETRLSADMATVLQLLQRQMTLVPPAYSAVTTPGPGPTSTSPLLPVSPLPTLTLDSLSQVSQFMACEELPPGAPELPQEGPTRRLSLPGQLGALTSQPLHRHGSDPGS

**Q.** What does the source list for `Cc1c(Nc2ncc3cc(Cl)c(C4CCN([C@@H]5COC[C@@H]5O)CC4)cc3n2)cnn1[C@@H]1CC1(F)F`?
**A.** CL [1]: 486 mL/min/kg; Kp uu at 4 h, 2.5 µM [2]: 0.43; efflux ratio at 3 h, up to 1 µM (rat Mdr1a (P-gp) [3]): 4.3; Papp A→B at 3 h, up to 1 µM (rat Mdr1a (P-gp) [4]): 31 ×10⁻⁶ cm/s; CLint scaled at 0.3 µM [5]: 114 mL/min/kg; CLint scaled at 0.3 µM [6]: 464 mL/min/kg; clearance [7]: 28 mL/min/kg; CL [8]: 480 mL/min/kg; MRT [9]: 3.7 h; CLint scaled at 0.3 µM [10]: 160 mL/min/kg; clearance [11]: 15 mL/min/kg; CL [12]: 205 mL/min/kg; MRT [13]: 16 h; bioavailability [14]: 64%; bioavailability [15]: 65%; efflux ratio at 3 h, up to 1 µM (mouse Bcrp [16]): 4.1; pIC50 [17]: 5.21; Activity (Salmonella typhimurium [18]): Non-Toxic; Activity (Salmonella typhimurium [19]): Non-Toxic; Activity (Salmonella typhimurium [20]): Non-Toxic; fIC50 [21]: 2.6 nM; solubility thermodynamic at 24 h [22]: 30 µg/mL (≈ 59.4 µM); Papp at 3 h, up to 1 µM (mouse Bcrp [23]): 30 ×10⁻⁶ cm/s; clearance [24]: 29 mL/min/kg; MRT [25]: 4.8 h; pIC50 [26]: 5.24; Activity [27]: Non-Toxic; AUC [28]: 16 µM·h; fold induction at 96 h (CYP1A1): 3; fold induction at 96 h (GSTA5): 5; fold induction at 96 h (UGT1A6): 2.5; Activity [29]: Non-Toxic; Activity [30]: Non-Toxic; Activity [31]: Non-Toxic; Activity [32]: 60%

**Q.** What does the source list for `COc1cc2ncnc(Nc3cccc(Cl)c3F)c2cc1OC(=O)N1CCN(C)C[C@H]1C` [AZD-3759]?
**A.** efflux ratio at 3 h, up to 1 µM (human MDR1 (P-gp)): 0.41; Kp uu at 4 h, 2.5 µM [2]: 1.3; Kp uu [33]: 0.52
